This note sets out measurements from US8877732B2, “Combination, kit and method of reducing intraocular pressure” (Inotek Pharmaceuticals Corporation, priority 2010, dated 2014).

Assay [1] deals with intraocular pressure (IOP) in normotensive monkeys. In words: Multidose study: twice-daily topical Compound A suspension with once daily topical latanoprost, IOP in conscious monkeys. It counts as in vivo, cynomolgus monkeys (Macaca fascicularis). How it is done:
Ten female, ocular normotensive cynomolgus monkeys (Macaca fascicularis), aged 3 to 4 years old at initiation of treatment, were acclimated to ocular topical dosing and repeated IOP measurements using a pneumatonometer (Model 30 Classic) without general anesthesia or sedation (conscious) and dosed as indicated in Table 1.
Intraocular pressure was measured from both eyes (three readings/eye/time interval with mean values represented in the data tables) beginning approximately 1 hour predose, at Time 0 (just prior to dosing), and after dosing at various time intervals. Mean IOP values and the percent change in IOP levels from the baseline level were calculated. The FIGS. 5 and 6 show summarized data from this phase of the study of the combined IOP mean values of treatments and standard deviation of the mean for the control. The control plot includes the combined mean values of all treatments (BSS alone and BSS in combination with Placebo). The mean IOP levels in the control eye ranged from 21 to 22 mmHg.

For assay [2] the test system is unchanged. The assay can be described thus: IOP after single topical ocular dosing of Compound A with or after latanoprost in conscious normotensive monkeys (Treatments 1-5). It counts as in vivo, cynomolgus monkeys (Macaca fascicularis). The settings on record: pre-clinical studies. How it is done:
Compound A was administered in two different formulations: […]
The aqueous formulation comprised of the following: […]
The control in the first treatment was a 40 mcL composition of 0.8% sodium chloride (NaCl), 0.15% citrate, 0.01% benzalkonium chloride, 0.3% polysorbate 80, and 0.7% sodium (Na) carboxymethylcellulose.
In the third treatment, 10 monkeys received latanoprost (Xalatan™) dosed via 2 drops at 15 mcL apart (at a concentration of 50 mcg/mL) for a total dose of 1.5 mcg in one study eye and 2 drops of saline vehicle in the contralateral eye. This treatment was performed at two separate times with a sufficient washout between treatments. The IOPs of both the study eye and contralateral eye were measured repeatedly using a calibrated pneumotonometer following an application of a topical anesthetic (proparacaine).
In the fourth treatment, 10 monkeys received latanoprost (Xalatan™) topically dosed via 2 drops at 15 mcL apart (at a concentration of 50 mcg/mL) for a total dose of 1.5 mcg in one study eye and saline in the contralateral eye. […] The intraocular pressures (IOP) of both the study eye and contralateral eye were measured repeatedly using a calibrated pneumotonometer following an application of a topical anesthetic (proparacaine). […]

[3] abbreviates: Compound A 65 μg/dose BID plus latanoprost 1.5 μg QD, right eye.

Take `O=[N+]([O-])OC[C@H]1O[C@@H](n2cnc3c(NC4CCCC4)ncnc32)[C@H](O)[C@@H]1O` [Compound A, ((2R,3S,4R,5R)-5-(6-(cyclopentylamino)-9H-purin-9-yl)-3,4-dihydroxytetrahydrofuran-2-yl)methyl nitrate]: the “reduction in IOP compared with latanoprost alone” value in assay [1] (Compound A 65 μg/dose BID (130 μg/day) suspension plus latanoprost 1.5 μg QD, right eye, 1 hour after each Compound A dose (Time 0 and 5 hours)) is recorded as “greater reduction in IOP”. Moreover, in assay [1] (setting [3]), the “IOP reduction at peak trough after the first daily dose” value is recorded as “approximately 12%” and the “IOP reduction at peak trough after the second daily dose” value is recorded as ~17%. In assay [2], the “IOP reduction by the combination of Compound A and latanoprost” value was “significant IOP reduction”.

As for `CC(C)OC(=O)CCC/C=C\C[C@@H]1[C@@H](CC[C@@H](O)CCc2ccccc2)[C@H](O)C[C@@H]1O` [latanoprost, isopropyl-(Z)-7[(1R,2R,3R,5S)3,5-dihydroxy-2-[(3R)-3-hydroxy-5-phenylpentyl]cyclopentyl]-5-heptenoate, reference compound], in assay [1] (latanoprost alone 1.5 μg/dose once daily topical, right eye, at peak trough), the “reduction from the mean IOP baseline levels” value was “approximately 13%”. The “reduction of mean IOP levels at peak trough” value in assay [1] (latanoprost alone 1.5 μg/dose once daily topical, right eye, repeated dosing, n=10) is given as “about 2 mm Hg”. Moreover, in assay [1] (latanoprost alone, after repeated treatments for two weeks, including pre-dose times), the “IOP of treated eyes versus control eyes” value was “slightly lower than that of the control eyes”.
